Assay results from ChEMBL document CHEMBL2074163, “Identification of monocarboxylate transporter 8 as a specific thyroid hormone transporter” (J Biol Chem, 2003).

Columns and labels:
Assay type in all cases: functional, cell-based
Conditions in all cases: Oocyte
[1] = biological target: Monocarboxylate transporter 8 (Rattus norvegicus) (UniProt Q8K1P8); test: TP_TRANSPORTER: uptake in Xenopus laevis oocytes
[2] = biological target: Monocarboxylate transporter 8 (Rattus norvegicus) (UniProt Q8K1P8); test: TP_TRANSPORTER: inhibition of 3,3',5-triiodothyronine uptake (3,3',5-triiodothyronine:10nM, bromosul-fophthalein: 100 uM) in Xenopus laevis oocytes; parameters: scale not given: the % may be the effect or the level left
[3] = biological target: Monocarboxylate transporter 8 (Rattus norvegicus) (UniProt Q8K1P8); test: TP_TRANSPORTER: inhibition of thyroxine uptake (thyroxine:10nM, bromosul-fophthalein: 100 uM) in Xenopus laevis oocytes; parameters: scale not given: the % may be the effect or the level left
[4] = biological target: Monocarboxylate transporter 8 (Rattus norvegicus) (UniProt Q8K1P8); test: TP_TRANSPORTER: inhibition of 3,3',5-triiodothyronine uptake (3,3',5-triiodothyronine:10nM, L-thyroxine: 10 uM) in Xenopus laevis oocytes; parameters: scale not given: the % may be the effect or the level left
[5] = biological target: Monocarboxylate transporter 8 (Rattus norvegicus) (UniProt Q8K1P8); test: TP_TRANSPORTER: inhibition of thyroxine uptake (thyroxine:10nM, L-thyroxine: 10 uM) in Xenopus laevis oocytes; parameters: scale not given: the % may be the effect or the level left
[6] = biological target: Monocarboxylate transporter 8 (Rattus norvegicus) (UniProt Q8K1P8); test: TP_TRANSPORTER: inhibition of 3,3',5-triiodothyronine uptake (3,3',5-triiodothyronine:10nM, D-3,3',5-triiodothyronine: 10 uM) in Xenopus laevis oocytes; parameters: scale not given: the % may be the effect or the level left
[7] = biological target: Monocarboxylate transporter 8 (Rattus norvegicus) (UniProt Q8K1P8); test: TP_TRANSPORTER: inhibition of thyroxine uptake (thyroxine:10nM, D-3,3',5-triiodothyronine: 10 uM) in Xenopus laevis oocytes; parameters: scale not given: the % may be the effect or the level left
[8] = biological target: Monocarboxylate transporter 8 (Rattus norvegicus) (UniProt Q8K1P8); test: TP_TRANSPORTER: inhibition of thyroxine uptake (thyroxine:10nM, Tyrosine: 100 uM) in Xenopus laevis oocytes; parameters: scale not given: the % may be the effect or the level left
[9] = biological target: Monocarboxylate transporter 8 (Rattus norvegicus) (UniProt Q8K1P8); test: TP_TRANSPORTER: inhibition of 3,3',5-triiodothyronine uptake (3,3',5-triiodothyronine:10nM, Tyrosine: 100 uM) in Xenopus laevis oocytes; parameters: scale not given: the % may be the effect or the level left
[10] = biological target: Monocarboxylate transporter 8 (Rattus norvegicus) (UniProt Q8K1P8); test: TP_TRANSPORTER: inhibition of thyroxine uptake (thyroxine:10nM, N-bromoacetyl-3,3',5-triiodothyronine: 10 uM) in Xenopus laevis oocytes; parameters: scale not given: the % may be the effect or the level left
[11] = biological target: Monocarboxylate transporter 8 (Rattus norvegicus) (UniProt Q8K1P8); test: TP_TRANSPORTER: inhibition of 3,3',5-triiodothyronine uptake (3,3',5-triiodothyronine:10nM, N-bromoacetyl-3,3',5-triiodothyronine: 10 uM) in Xenopus laevis oocytes; parameters: scale not given: the % may be the effect or the level left
[12] = biological target: Monocarboxylate transporter 8 (Rattus norvegicus) (UniProt Q8K1P8); test: TP_TRANSPORTER: inhibition of 3,3',5-triiodothyronine uptake (3,3',5-triiodothyronine:10nM, Tryptophan: 100 uM) in Xenopus laevis oocytes; parameters: scale not given: the % may be the effect or the level left
[13] = biological target: Monocarboxylate transporter 8 (Rattus norvegicus) (UniProt Q8K1P8); test: TP_TRANSPORTER: inhibition of thyroxine uptake (thyroxine:10nM, Tryptophan: 100 uM) in Xenopus laevis oocytes; parameters: scale not given: the % may be the effect or the level left
[14] = biological target: Monocarboxylate transporter 8 (Rattus norvegicus) (UniProt Q8K1P8); test: TP_TRANSPORTER: inhibition of 3,3',5-triiodothyronine uptake (3,3',5-triiodothyronine:10nM, D-thyroxine: 10 uM) in Xenopus laevis oocytes; parameters: scale not given: the % may be the effect or the level left
[15] = biological target: Monocarboxylate transporter 8 (Rattus norvegicus) (UniProt Q8K1P8); test: TP_TRANSPORTER: inhibition of thyroxine uptake (thyroxine:10nM, D-thyroxine: 10 uM) in Xenopus laevis oocytes; parameters: scale not given: the % may be the effect or the level left

Monocarboxylate transporter 8 (Rattus norvegicus), sequence (Q8K1P8 whole entry): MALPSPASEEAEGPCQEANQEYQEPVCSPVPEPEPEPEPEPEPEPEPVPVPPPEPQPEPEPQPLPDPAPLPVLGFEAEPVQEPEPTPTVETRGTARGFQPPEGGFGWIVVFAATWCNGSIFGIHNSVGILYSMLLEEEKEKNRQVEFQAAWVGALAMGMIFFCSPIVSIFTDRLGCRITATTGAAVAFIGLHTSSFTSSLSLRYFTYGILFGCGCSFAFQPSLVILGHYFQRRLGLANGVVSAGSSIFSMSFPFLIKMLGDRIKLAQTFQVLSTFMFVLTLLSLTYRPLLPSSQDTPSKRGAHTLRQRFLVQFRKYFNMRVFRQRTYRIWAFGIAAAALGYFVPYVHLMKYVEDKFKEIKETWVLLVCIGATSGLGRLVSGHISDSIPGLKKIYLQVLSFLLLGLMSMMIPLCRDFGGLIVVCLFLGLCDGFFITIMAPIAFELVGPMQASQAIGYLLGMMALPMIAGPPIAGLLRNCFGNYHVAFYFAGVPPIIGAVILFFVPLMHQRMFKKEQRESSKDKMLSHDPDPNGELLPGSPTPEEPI

Q: Which Activity [1] does the source give for N[C@@H](Cc1cc(I)c(Oc2cc(I)c(OS(=O)(=O)O)c(I)c2)c(I)c1)C(=O)O here?
A: The Activity was “is not a substrate [-]”.

Q: How did the Activity [1] turn out when CC(C)C[C@H](N)C(=O)O was run?
A: The Activity was “is not a substrate [-]”.

Q: For N[C@@H](Cc1ccccc1)C(=O)O, which Activity [1] is on record?
A: The Activity was “is not a substrate [-]”.

Q: Which results are given for O=C1OC(c2ccc(O)c(S(=O)(=O)O)c2)(c2ccc(O)c(S(=O)(=O)O)c2)c2c(Br)c(Br)c(Br)c(Br)c21?
A: Activity [2]: 81%; Activity [3]: 94%

Q: Which results are given for N[C@@H](Cc1cc(I)c(Oc2cc(I)c(O)c(I)c2)c(I)c1)C(=O)O?
A: Activity [4]: 26%; Activity [5]: 69%

Q: What does the source list for N[C@@H](Cc1ccc(Oc2cc(I)c(O)c(I)c2)c(I)c1)C(=O)O?
A: Activity [6]: 24%; Activity [7]: 72%

Q: With N[C@@H](Cc1ccc(O)cc1)C(=O)O as the compound, how does the Activity [8] read?
A: The Activity was 37%.

Q: And the Activity [1]?
A: Its Activity is “is not a substrate [-]”.

Q: And the Activity [9]?
A: The Activity was 0%.

Q: Which results are given for O=C(CBr)N[C@@H](Cc1cc(I)c(Oc2ccc(O)c(I)c2)c(I)c1)C(=O)O?
A: Activity [10]: 90%; Activity [11]: 67%

Q: With N[C@@H](Cc1c[nH]c2ccccc12)C(=O)O as the compound, how does the Activity [12] read?
A: Its Activity is 0%.

Q: What about the Activity [1] of the same compound?
A: The Activity was “is not a substrate [-]”.

Q: And the Activity [13]?
A: The Activity was 22%.

Q: Which Activity [14] does the source give for N[C@H](Cc1cc(I)c(Oc2cc(I)c(O)c(I)c2)c(I)c1)C(=O)O here?
A: Its Activity is 21%.

Q: And the Activity [15]?
A: Its Activity is 76%.

Q: How did the Activity [1] turn out when O=C(O)[C@@H](Cc1cc(I)c(Oc2cc(I)c(O)c(I)c2)c(I)c1)NS(=O)(=O)O was run?
A: Its Activity is “is not a substrate [-]”.

Q: For NC(Cc1ccc(Oc2ccc(O)c(I)c2)c(I)c1)C(=O)O (stereo unspecified), which Activity [1] is on record?
A: Its Activity is “substrate [+]”.
